Patent US10479780B2, “Aminopyrazole derivatives” (Chugai Seiyaku Kabushiki Kaisha, priority 2015, dated 2019)
pIC50: −log10 of the molar value.

Tests used:
Type in all cases: biochemical
[1] = biological target: T1, human Yes1 enzyme (Homo sapiens, UniProt P07947); test: Yes1 enzyme inhibitory activity (time-resolved fluorometry, biotinylated peptide phosphorylation); settings: read-out: YES_IC50
T1 construct: made in house
Outline: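 Inhibition was expressed against a compound-free control to give IC50, using TR-FRET read-out (Eu-cryptate anti-pTyr antibody, streptavidin-XL665).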

[2] = biological target: T2, human Src enzyme (Homo sapiens, UniProt P12931); test: Src enzyme inhibitory activity (time-resolved fluorometry, biotinylated peptide phosphorylation); settings: read-out: SRC_IC50
T2 construct: purchased Carna Biosciences, Inc. 08-173
Outline: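 Compounds were tested for blocking tyrosine phosphorylation of a biotinylated peptide substrate by recombinant human Src. Phosphorylated product was quantified by time-resolved fluorometry using europium cryptate and XL665 conjugates, and IC50 was calculated against the compound-free control.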

[3] = biological target: T3, human Lck enzyme (Homo sapiens, UniProt P06239); test: Lck enzyme inhibitory activity (time-resolved fluorometry, biotinylated peptide phosphorylation); settings: read-out: LCK_IC50
T3 construct: purchased Carna Biosciences, Inc. 08-170
Outline: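 Readout pairs a europium cryptate-labelled anti-phosphotyrosine antibody with XL665-streptavidin, measured by time-resolved fluorescence. IC50 derived from percent inhibition against untreated controls.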

T3 sequence (P06239 whole entry): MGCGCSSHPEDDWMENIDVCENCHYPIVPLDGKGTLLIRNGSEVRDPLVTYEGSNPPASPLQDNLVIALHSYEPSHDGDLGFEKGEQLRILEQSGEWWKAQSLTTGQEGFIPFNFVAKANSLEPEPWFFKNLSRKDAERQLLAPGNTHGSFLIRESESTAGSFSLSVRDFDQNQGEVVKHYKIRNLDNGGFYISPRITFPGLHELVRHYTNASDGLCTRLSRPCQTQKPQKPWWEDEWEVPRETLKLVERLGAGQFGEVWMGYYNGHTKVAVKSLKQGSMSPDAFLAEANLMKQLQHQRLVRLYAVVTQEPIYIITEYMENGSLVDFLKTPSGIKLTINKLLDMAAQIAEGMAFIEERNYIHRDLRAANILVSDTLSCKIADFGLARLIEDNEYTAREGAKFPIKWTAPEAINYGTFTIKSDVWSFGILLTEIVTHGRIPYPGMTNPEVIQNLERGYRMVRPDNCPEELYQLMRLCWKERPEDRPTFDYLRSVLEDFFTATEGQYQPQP
T2 sequence (P12931 whole entry): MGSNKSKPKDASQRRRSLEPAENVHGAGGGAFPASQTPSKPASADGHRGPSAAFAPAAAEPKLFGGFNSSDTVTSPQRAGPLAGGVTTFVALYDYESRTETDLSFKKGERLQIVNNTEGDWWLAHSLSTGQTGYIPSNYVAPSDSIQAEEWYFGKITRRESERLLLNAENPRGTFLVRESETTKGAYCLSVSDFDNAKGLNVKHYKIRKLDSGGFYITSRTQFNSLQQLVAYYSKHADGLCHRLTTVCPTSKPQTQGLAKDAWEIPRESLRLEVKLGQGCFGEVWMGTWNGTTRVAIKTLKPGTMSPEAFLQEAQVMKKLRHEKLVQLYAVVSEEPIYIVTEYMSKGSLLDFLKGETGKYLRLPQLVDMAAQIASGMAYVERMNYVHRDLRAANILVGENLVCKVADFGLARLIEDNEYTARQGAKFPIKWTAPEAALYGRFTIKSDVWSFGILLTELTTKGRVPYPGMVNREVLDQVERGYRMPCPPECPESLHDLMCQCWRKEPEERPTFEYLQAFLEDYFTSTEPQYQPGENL
T1 sequence (P07947 whole entry): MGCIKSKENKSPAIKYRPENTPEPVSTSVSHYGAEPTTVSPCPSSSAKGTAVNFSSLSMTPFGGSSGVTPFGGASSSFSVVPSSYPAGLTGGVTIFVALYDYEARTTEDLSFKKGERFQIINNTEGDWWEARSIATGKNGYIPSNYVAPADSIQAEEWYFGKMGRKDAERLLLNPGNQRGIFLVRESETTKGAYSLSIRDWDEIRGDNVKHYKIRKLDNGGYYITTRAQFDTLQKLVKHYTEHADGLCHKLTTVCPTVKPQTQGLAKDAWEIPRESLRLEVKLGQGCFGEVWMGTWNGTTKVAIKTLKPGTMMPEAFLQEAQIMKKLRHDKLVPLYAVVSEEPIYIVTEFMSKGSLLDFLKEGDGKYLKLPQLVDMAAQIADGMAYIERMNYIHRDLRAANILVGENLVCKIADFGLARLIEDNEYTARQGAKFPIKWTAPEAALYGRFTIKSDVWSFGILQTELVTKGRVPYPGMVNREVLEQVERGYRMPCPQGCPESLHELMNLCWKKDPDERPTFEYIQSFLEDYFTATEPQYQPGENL

Row | Compound | pIC50 [1] | pIC50 [2] | pIC50 [3]
1 | Cc1cc2cc(C(=O)c3cnn(-c4ccc(Oc5ccccc5F)cc4C)c3N)[nH]c2cc1C1CCN(S(C)(=O)=O)CC1 [Example 5-1-086, [5-amino-1-[4-(2-fluorophenoxy)-2-methylphenyl]pyrazol-4-yl]-[5-methyl-6-(1-methylsulfonylpiperidin-4-yl)-1H-indol-2-yl] methanone] | 8.85 | 8.07 | 8.55
2 | Cc1cc2cc(C(=O)c3cnn(-c4cnc(Oc5c(F)cccc5F)cc4C)c3N)[nH]c2cc1NS(=O)(=O)CC(=O)N1CCCC1 [Example 5-1-088, N-[2-[5-amino-1-[6-(2,6-difluorophenoxy)-4-methylpyridin-3-yl]pyrazole-4-carbonyl]-5-methyl-1H-indol-6-yl]-2-oxo-2-pyrrolidin-1-ylethanesulfonamide] | 8.66 | 7.57 | 8.55
3 | Cc1cc2cc(C(=O)c3cnn(-c4c(C)cc(Oc5ccccc5F)cc4F)c3N)[nH]c2cc1NS(=O)(=O)CC(=O)NC(C)C [Example 5-1-089, 2-[[2-[5-amino-1-[2-fluoro-4-(2-fluorophenoxy)-6-methylphenyl]pyrazole-4-carbonyl]-5-methyl-1H-indol-6-yl]sulfamoyl]-N-propan-2-ylacetamide] | 8.21 | 7.11 | 8.05
4 | Cc1cc2cc(C(=O)c3cnn(-c4cnc(Oc5ccccc5F)cc4C)c3N)[nH]c2cc1C1CCN(S(C)(=O)=O)CC1 [Example 5-1-090, [5-amino-1-[6-(2-fluorophenoxy)-4-methylpyridin-3-yl]pyrazol-4-yl]-[5-methyl-6-(1-methylsulfonylpiperidin-4-yl)-1H-indol-2-yl] methanone] | 8.59 | 7.60 | 8.42
5 | Cc1cc2cc(C(=O)c3cnn(-c4cnc(Oc5c(F)cccc5F)cc4C)c3N)[nH]c2cc1C1CCN(S(C)(=O)=O)CC1 [Example 5-1-091, [5-amino-1-[6-(2,6-difluorophenoxy)-4-methylpyridin-3-yl]pyrazol-4-yl]-[5-methyl-6-(1-methylsulfonylpiperidin-4-yl)-1H-indol-2-yl] methanone] | 8.49 | 7.62 | 8.43
6 | Cc1cc2cc(C(=O)c3cnn(-c4ccc(Oc5c(F)cccc5F)cc4C)c3N)[nH]c2cc1NS(C)(=O)=O [Example 5-1-092, N-[2-[5-amino-1-[4-(2,6-difluorophenoxy)-2-methylphenyl]pyrazole-4-carbonyl]-5-methyl-1H-indol-6-yl]methanesulfonamide] | 9.04 | 7.80 | 8.55
7 | Cc1cc(Oc2ccccc2F)ccc1-n1ncc(C(=O)c2cc3cc(N4CCOCC4)c(N4CCN(S(C)(=O)=O)CC4)cc3[nH]2)c1N [Example 5-1-093, [5-amino-1-[4-(2-fluorophenoxy)-2-methylphenyl]pyrazol-4-yl]-[6-(4-methylsulfonylpiperazin-1-yl)-5-morpholin-4-yl-1H-indol-2-yl]methanone] | 8.74 | 7.96 | 8.43
8 | Cc1cc(Oc2ccccc2F)ccc1-n1ncc(C(=O)c2cc3cc(N4CCOCC4)c(N4CCOCC4)cc3[nH]2)c1N [Example 5-1-094, [5-amino-1-[4-(2-fluorophenoxy)-2-methylphenyl]pyrazol-4-yl]-(5,6-dimorpholin-4-yl-1H-indol-2-yl)methanone] | 8.54 | 7.72 | 8.39
9 | Cc1cc(Oc2ccccc2F)ccc1-n1ncc(C(=O)c2cc3cc(F)c(N4CCOC4=O)cc3[nH]2)c1N [Example 5-1-095, 3-[2-[5-amino-1-[4-(2-fluorophenoxy)-2-methylphenyl]pyrazole-4-carbonyl]-5-fluoro-1H-indol-6-yl]-1,3-oxazolidin-2-one] | 9.06 | 8.35 | 8.82
10 | Cc1cc2cc(C(=O)c3cnn(-c4ccc(Oc5c(F)cccc5Cl)cc4C)c3N)[nH]c2cc1NS(C)(=O)=O [Example 5-1-096, N-[2-[5-amino-1-[4-(2-chloro-6-fluorophenoxy)-2-methylphenyl]pyrazole-4-carbonyl]-5-methyl-1H-indol-6-yl] methanesulfonamide] | 8.77 | 7.48 | 8.57
11 | Cc1cc(Oc2c(F)cccc2F)ncc1-n1ncc(C(=O)c2cc3cc(F)c(N4CCOC4=O)cc3[nH]2)c1N [Example 5-1-097, 3-[2-[5-amino-1-[6-(2,6-difluorophenoxy)-4-methylpyridin-3-yl]pyrazole-4-carbonyl]-5-fluoro-1H-indol-6-yl]-1,3-oxazolidin-2-one] | 8.96 | 8.06 | 8.89
12 | Cc1cc(Oc2c(F)cccc2F)ncc1-n1ncc(C(=O)c2cc3cc(F)c(N4CCCC4=O)cc3[nH]2)c1N [Example 5-1-098, 1-[2-[5-amino-1-[6-(2,6-difluorophenoxy)-4-methylpyridin-3-yl]pyrazole-4-carbonyl]-5-fluoro-1H-indol-6-yl]pyrrolidin-2-one] | 8.72 | 7.82 | 8.85
13 | Cc1cc(Oc2c(F)cccc2F)ncc1-n1ncc(C(=O)c2cc3cc(F)c(N4CCN(S(C)(=O)=O)CC4)cc3[nH]2)c1N [Example 5-1-099] | 8.68 | 7.96 | 8.66
14 | Cc1cc(Oc2c(F)cccc2F)ncc1-n1ncc(C(=O)c2cc3cc(F)c(N4CCOCC4)cc3[nH]2)c1N [Example 5-1-100, [5-amino-1-[6-(2,6-difluorophenoxy)-4-methylpyridin-3-yl]pyrazol-4-yl]-(5-fluoro-6-morpholin-4-yl-1H-indol-2-yl)methanone] | 8.80 | 8.06 | 8.89
15 | Cc1cc(Oc2c(F)cccc2F)ncc1-n1ncc(C(=O)c2cc3cc(F)c(-n4c(C)cc(=O)[nH]c4=O)cc3[nH]2)c1N [Example 5-1-101, 1-[2-[5-amino-1-[6-(2,6-difluorophenoxy)-4-methylpyridin-3-yl]pyrazole-4-carbonyl]-5-fluoro-1H-indol-6-yl]-6-methylpyrimidine-2,4-dione] | 8.72 | 7.60 | 8.96
16 | Cc1cc(Oc2ccccc2F)ccc1-n1ncc(C(=O)c2cc3cc(N4CCOCC4)c(N4CCCC4=O)cc3[nH]2)c1N [Example 5-1-105, 1-[2-[5-amino-1-[4-(2-fluorophenoxy)-2-methylphenyl]pyrazole-4-carbonyl]-5-morpholin-4-yl-1H-indol-6-yl]pyrrolidin-2-one] | 9.11 | 8.44 | 8.80
17 | Cc1cc2cc(C(=O)c3cnn(-c4ccc(Oc5cc(F)ccc5F)cc4C)c3N)[nH]c2cc1NS(C)(=O)=O [Example 5-1-107, N-[2-[5-amino-1-[4-(2,5-difluorophenoxy)-2-methylphenyl]pyrazole-4-carbonyl]-5-methyl-1H-indol-6-yl]methanesulfonamide] | 8.82 | 7.02 | 8.10

Further compounds by rising pIC50 [1], results first:

Row | pIC50 [1] | pIC50 [2] | pIC50 [3] | Compound
18 | 9.11 | 7.89 | 8.41 | Cc1cc(Oc2ccccc2F)ccc1-n1ncc(C(=O)c2cc3cc(OCC(F)F)c(N4CCC(O)CC4)cc3[nH]2)c1N [Example 5-1-087, [5-amino-1-[4-(2-fluorophenoxy)-2-methylphenyl]pyrazol-4-yl]-[5-(2,2-difluoroethoxy)-6-(4-hydroxypiperidin-1-yl)-1H-indol-2-yl]methanone]
19 | 9.11 | 8.30 | 8.89 | Cc1cc(Oc2c(F)cccc2F)ncc1-n1ncc(C(=O)c2cc3cc(F)c(NC4CN(S(C)(=O)=O)C4)cc3[nH]2)c1N [Example 5-1-102, [5-amino-1-[6-(2,6-difluorophenoxy)-4-methylpyridin-3-yl]pyrazol-4-yl]-[5-fluoro-6-[(1-methylsulfonylazetidin-3-yl)amino]-1H-indol-2-yl]methanone]
20 | 9.15 | 7.43 | 8.85 | Cc1cc2cc(C(=O)c3cnn(-c4cnc(Oc5ccccc5)cc4C)c3N)[nH]c2cc1NS(C)(=O)=O [Example 5-1-109, N-[2-[5-amino-1-(4-methyl-6-phenoxypyridin-3-yl)pyrazole-4-carbonyl]-5-methyl-1H-indol-6-yl]methanesulfonamide]
21 | 9.20 | 8.01 | 8.96 | Cc1cc(Oc2ccccc2F)ccc1-n1ncc(C(=O)c2cc3cc(F)c(-n4c(C)cc(=O)[nH]c4=O)cc3[nH]2)c1N [Example 5-1-104, 1-[2-[5-amino-1-[4-(2-fluorophenoxy)-2-methylphenyl]pyrazole-4-carbonyl]-5-fluoro-1H-indol-6-yl]-6-methylpyrimidine-2,4-dione]
22 | 9.24 | 7.68 | 8.77 | Cc1cc2cc(C(=O)c3cnn(-c4ccc(Oc5ccccc5)cc4C)c3N)[nH]c2cc1NS(C)(=O)=O [Example 5-1-108, N-[2-[5-amino-1-(2-methyl-4-phenoxyphenyl)pyrazole-4-carbonyl]-5-methyl-1H-indol-6-yl] methanesulfonamide]
23 | 9.38 | 8.70 | 8.96 | Cc1cc(Oc2ccccc2F)ccc1-n1ncc(C(=O)c2cc3cc(N4CCOCC4)c(N4CCOC4=O)cc3[nH]2)c1N [Example 5-1-106, 3-[2-[5-amino-1-[4-(2-fluorophenoxy)-2-methylphenyl]pyrazole-4-carbonyl]-5-morpholin-4-yl-1H-indol-6-yl]-1,3-oxazolidin-2-one]
24 | 9.42 | 8.28 | 8.96 | Cc1cc(Oc2ccccc2F)ccc1-n1ncc(C(=O)c2cc3cc(F)c(N4CCCC4=O)cc3[nH]2)c1N [Example 5-1-103, 1-[2-[5-amino-1-[4-(2-fluorophenoxy)-2-methylphenyl]pyrazole-4-carbonyl]-5-fluoro-1H-indol-6-yl]pyrrolidin-2-one]
